According to patent publication EP1604970A1, “2-(Biphenyl-3-yl)-carboxylic acids of gamma-secretase-modulating activity” (CELLZOME AG, priority 2004, dated 2005):

How the values were obtained:
γ-secretase = assay: Screening for γ-secretase-modulating activity in SKN neuroblastoma cells carrying the APP "swedish mutation" (assay of Citron et al 1997); type: cell-based
Experimental: Screening was carried out using SKN neuroblastoma cells carrying the APP-"swedish mutation" (point mutation at 695 of APP) grown in DMEM/NUT-mix F12 (HAM) provided by Gibco (cat no. 31330-38) containing 5% Serum/Fe supplemented with 1% non-essential amino acids, 100 U/ml Pen/Strep. Cells were grown to near confluency. The screening was performed using the assay as described in Citron et al (1997), Nature Medicine. Vol 3: 67-72

cyclooxygenase-1 (Cox-1) = target: T1, cyclooxygenase-1 (Cox-1) (Ovis aries, UniProt P05979); assay: Colorimetric Cox inhibitor screening assay (Cayman Chemical, Cat. No. 760111); type: biochemical; conditions: at concentrations of up to 300uM
T1 construct: purchased Cayman Chemical Company 760111
T1 sequence (P05979 25-600): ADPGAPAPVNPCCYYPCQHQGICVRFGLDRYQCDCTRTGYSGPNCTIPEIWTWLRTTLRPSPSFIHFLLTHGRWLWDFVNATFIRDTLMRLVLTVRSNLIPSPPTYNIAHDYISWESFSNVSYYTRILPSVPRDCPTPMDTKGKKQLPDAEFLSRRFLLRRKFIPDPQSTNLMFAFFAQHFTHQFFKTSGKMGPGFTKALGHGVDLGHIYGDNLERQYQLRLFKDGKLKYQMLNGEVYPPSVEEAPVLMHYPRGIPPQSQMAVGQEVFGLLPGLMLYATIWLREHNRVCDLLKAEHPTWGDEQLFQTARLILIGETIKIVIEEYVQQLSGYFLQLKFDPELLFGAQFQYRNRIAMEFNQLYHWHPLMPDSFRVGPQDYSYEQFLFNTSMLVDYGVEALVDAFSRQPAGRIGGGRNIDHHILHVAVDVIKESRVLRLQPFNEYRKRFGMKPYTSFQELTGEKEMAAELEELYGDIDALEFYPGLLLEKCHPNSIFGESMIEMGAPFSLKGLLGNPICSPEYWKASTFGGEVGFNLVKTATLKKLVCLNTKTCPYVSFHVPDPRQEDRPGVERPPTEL
Experimental: Inhibition of Cox-1 was determined using the Colorimetric Cox inhibitor screening assay provided by Cayman Chemical Company, Ann Arbor, MI, USA. (Cat. No. 760111) according to manufacturer's instructions. Exemplary studies were carried out using 2-(4'-trifluoromethyl-biphenyl-3-yl)-propionic acid.

| SMILES | IC50 (γ-secretase) [µM] | effect on the Cox-1 activity (cyclooxygenase-1 (Cox-1)) |
| --- | --- | --- |
| CC(C(=O)O)c1cccc(-c2ccc(Cl)cc2)c1 (stereo not drawn) [2-(4'-Chloro-biphenyl-3-yl)-propionic acid] | 41 |  |
| CC(C(=O)O)c1cccc(-c2ccc(OC(F)(F)F)cc2)c1 (stereo not drawn) [2-(4'-Trifluoromethoxy-biphenyl-3-yl)-propionic acid] | 75 |  |

Results, then the molecule that gave them:

| IC50 (γ-secretase) [µM] | effect on the Cox-1 activity (cyclooxygenase-1 (Cox-1)) | SMILES |
| --- | --- | --- |
| 24 | No significant effect | CC(C(=O)O)c1cccc(-c2ccc(C(F)(F)F)cc2)c1 (stereo not drawn) [2-(4'-Trifluoromethyl-biphenyl-3-yl)-propionic acid] |
| 84 |  | O=C(O)Cc1cccc(-c2ccc(C(F)(F)F)cc2)c1 [(4'-Trifluoromethyl-biphenyl-3-yl)-acetic acid] |
| 247 |  | C[C@@H](C(=O)O)c1ccc(-c2ccccc2)c(F)c1 [R-Flurbiprofen, reference compound] |
